Assay results taken from patent publication US7504420B2, “Compounds which inhibit beta-secretase activity and methods of use” (CoMentis, Inc., priority 2005, dated 2009).

Columns and labels:
memapsin 2 = memapsin 2 (Homo sapiens, UniProt P56817); assay: Inhibition of memapsin 2 catalytic activity (Ki); format: biochemical; details: memapsin 2, pH 4, 37° C.; read-out: M2K
How it was run: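 Run at 37 °C and pH 4: compound and enzyme pre-incubated 20 min before FS-2 fluorogenic substrate started hydrolysis,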

cathepsin D = cathepsin D (Homo sapiens, UniProt P07339); assay: Inhibition of cathepsin D catalytic activity (Ki); format: biochemical; details: pH 4.0, 37° C., read-out: CDK
cathepsin D, sequence (P07339 65-412, species assumed): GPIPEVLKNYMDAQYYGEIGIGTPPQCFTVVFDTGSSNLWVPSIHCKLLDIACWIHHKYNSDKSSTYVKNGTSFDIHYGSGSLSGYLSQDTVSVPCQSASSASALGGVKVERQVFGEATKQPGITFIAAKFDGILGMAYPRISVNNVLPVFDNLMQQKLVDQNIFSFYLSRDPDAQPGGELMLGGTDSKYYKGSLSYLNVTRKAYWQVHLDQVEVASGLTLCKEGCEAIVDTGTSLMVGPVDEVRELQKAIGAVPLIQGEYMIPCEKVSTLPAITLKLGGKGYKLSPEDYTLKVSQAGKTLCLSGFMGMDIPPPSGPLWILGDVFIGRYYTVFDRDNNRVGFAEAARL
Protocol: (§1) A substrate peptide NH3-ELDLAVEFWHDR-CO2 (SEQ ID NO.:1) (used for inhibition assay of memapsin 2, memapsin 1, and cathepsin D) was dissolved at 2 mg/ml in DMSO and diluted 1:100 in 0.1 M sodium acetate, pH 4.0 just prior to assay. Inhibitor dissolved in DMSO was diluted into 0.1 M sodium acetate, pH 4.0 (1:100 dilution). A […] aliquot of the inhibitor solution in pH 4 buffer was combined with […] of 0.1 M sodium acetate containing 100-200 nM of memapsin 1, memapsin 2, or cathepsin D. Following a pre-incubation at 37° C., the proteolytic assay was initated by addition of […] of the substrate diluted into pH 4 buffer, and incubation continued at 37° C. Aliquots were removed at time intervals, and combined with an equal volume of MALDI-TOF matrix (α-hydroxycinnamic acid in acetone, 20 mg/ml) and immediately spotted in duplicate onto a stainless-steel MALDI sample plate. MALDI-TOF mass spectrometry was performed on a PE Biosystems Voyager DE instrument at the Molecular Biology Resource Center on campus. The instrument was operated at 25,000 accelerating volts in positive mode with a 150 ns delay. Ions with a mass-to-charge ratio (m/z) were detected in the range of 650-2000 atomic mass units. Data were analyzed by the Voyager Data Explorer module to obtain ion intensity data for mass species of substrates and corresponding products in a given mixture. Relative product formation was calculated as the ratio of signal intensity of the product to the sum of signal intensities of both product and the corresponding substrate. Relative product formed per unit time was obtained from non-linear regression analysis of the data representing the initial 15% formation of product using the model: 1−e^−kT, where k was the relative hydrolytic rate constant and T was time in seconds. Alternatively, relative hydrolytic rates were determined using a fluorogenic cleavage assay (Ermolieff, J. et al., Biochemistry, 39: 12450-12456 (2000)). Initial rates from either method were expressed relative to uninhibited controls and the inhibition constant Ki was determined by a non-linear fit to a tight-binding model of competitive inhibition (Bieth, J., Bayer-Symposium V: Proteinase Inhibitors, pp 463-469, Spinger-Varlag, Berlin (1994)). Results are shown in Table 1 above (M2K, CDK, and M1K columns represent, respectively, the K1 values obtained for memapsin 2, cathepsin D and memapsin 1).

memapsin 1 = molecular target: T1, memapsin 1 (Homo sapiens, UniProt Q9Y5Z0); assay: Inhibition of memapsin 1 catalytic activity (Ki); format: biochemical; details: memapsin 1, pH 4.0, 37° C.; read-out: M1K
T1 sequence (Q9Y5Z0 63-518): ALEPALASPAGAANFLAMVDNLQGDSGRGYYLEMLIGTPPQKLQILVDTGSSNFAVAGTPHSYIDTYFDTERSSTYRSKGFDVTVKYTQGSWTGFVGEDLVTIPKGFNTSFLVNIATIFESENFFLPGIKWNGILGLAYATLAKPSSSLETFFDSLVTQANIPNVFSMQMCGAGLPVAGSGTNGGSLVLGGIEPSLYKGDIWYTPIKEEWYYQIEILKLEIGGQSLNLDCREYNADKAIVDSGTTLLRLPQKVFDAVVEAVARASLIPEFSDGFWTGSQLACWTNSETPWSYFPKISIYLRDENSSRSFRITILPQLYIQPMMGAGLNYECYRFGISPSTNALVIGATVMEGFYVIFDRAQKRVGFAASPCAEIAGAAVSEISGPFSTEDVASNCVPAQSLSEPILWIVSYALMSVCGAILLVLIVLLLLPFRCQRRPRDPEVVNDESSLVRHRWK
Protocol: as §1

[1] = tested on: Aβ production in Chinese hamster ovary cells that over-express human APP695 with the London and Swedish mutations; assay: Cellular Aβ IC50 determination (Aβ40 sandwich ELISA); details: Cricetulus griseus, CHO, 24 h, read-out: Cell, Aβ40, CHO cells over-expressing human APP695 (London and Swedish mutations), 24 h

memapsin 2, sequence (P56817 46-501): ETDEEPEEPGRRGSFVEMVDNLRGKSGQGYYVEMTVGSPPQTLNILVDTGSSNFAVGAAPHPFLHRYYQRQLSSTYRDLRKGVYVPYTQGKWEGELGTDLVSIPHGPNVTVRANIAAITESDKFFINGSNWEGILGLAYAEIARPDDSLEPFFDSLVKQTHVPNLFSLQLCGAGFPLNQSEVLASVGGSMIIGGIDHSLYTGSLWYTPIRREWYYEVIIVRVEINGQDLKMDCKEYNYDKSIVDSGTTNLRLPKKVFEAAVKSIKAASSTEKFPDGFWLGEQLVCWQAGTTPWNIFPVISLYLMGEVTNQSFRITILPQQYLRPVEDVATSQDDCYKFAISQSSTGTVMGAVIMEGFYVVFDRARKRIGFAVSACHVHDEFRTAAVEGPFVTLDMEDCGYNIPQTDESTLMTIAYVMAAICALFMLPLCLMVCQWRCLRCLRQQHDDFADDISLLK

Compound | Ki (memapsin 2) [µM] | Ki (cathepsin D) [µM] | Ki (memapsin 1) [µM] | IC50 [1] [µM]
4- or 6-fluoro-N3-(3-hydroxy-4-(3-methoxybenzylamino)-1-phenylbutan-2-yl)-N1-methyl-N1-((4-methylthiazol-2-yl)methyl)isophthalamide | < 0.3 | < 0.3 | < 0.3 | –
COc1cccc(CNCC(O)C(CC(C)C)NC(=O)c2cc(C(=O)NC(C)c3ccccc3)cc(N(C)S(C)(=O)=O)c2)c1 (stereo not shown) [N1-(2-hydroxy-1-(3-methoxybenzylamino)-5-methylhexan-3-yl)-5-(N-methylmethylsulfonamido)-N3-(1-phenylethyl)isophthalamide] | > 0.501 | – | > 0.501 | –
COCc1cccc(CNCC(O)C(Cc2ccccc2)NC(=O)c2cc(C(=O)NC(C)c3ccccc3)cc(N(C)S(C)(=O)=O)c2)c1 (stereo not shown) [N1-(3-hydroxy-4-(3-(methoxymethyl)benzylamino)-1-phenylbutan-2-yl)-5-(N-methylmethylsulfonamido)-N3-(1-phenylethyl)isophthalamide] | – | – | > 0.501 | > 5
COc1cccc(CNCC(O)C(Cc2ccccc2)NC(=O)c2cc(C(=O)NC(C)c3cccc(OC)c3)cc(N(C)S(C)(=O)=O)c2)c1 (stereo not shown) [N1-(3-hydroxy-4-(3-methoxybenzylamino)-1-phenylbutan-2-yl)-N3-(1-(3-methoxyphenyl)ethyl)-5-(N-methylmethylsulfonamido)isophthalamide] | < 0.3 | – | > 0.501 | < 1
COc1cccc(F)c1CNCC(O)C(Cc1ccccc1)NC(=O)c1cc(C(=O)NC(C)c2ccccc2)cc(N(C)S(C)(=O)=O)c1 (stereo not shown) [N1-(4-(2-fluoro-6-methoxybenzylamino)-3-hydroxy-1-phenylbutan-2-yl)-5-(N-methylmethylsulfonamido)-N3-(1-phenylethyl)isophthalamide] | < 0.3 | < 0.3 | – | < 1
CC(NC(=O)c1cc(C(=O)NC(Cc2ccccc2)C(O)CNCc2cccc(CN(C)C)c2)cc(N(C)S(C)(=O)=O)c1)c1ccccc1 (stereo not shown) [N1-(4-(3-((dimethylamino)methyl)benzylamino)-3-hydroxy-1-phenylbutan-2-yl)-5-(N-methylmethylsulfonamido)-N3-(1-phenylethyl)isophthalamide] | < 0.3 | > 0.501 | – | < 1
CC(NC(=O)c1cc(C(=O)NC(Cc2ccccc2)C(O)CNCc2cccc(OC(F)F)c2)cc(N(C)S(C)(=O)=O)c1)c1ccccc1 (stereo not shown) [N1-(4-(3-(difluoromethoxy)benzylamino)-3-hydroxy-1-phenylbutan-2-yl)-5-(N-methylmethylsulfonamido)-N3-(1-phenylethyl)isophthalamide] | < 0.3 | < 0.3 | – | < 1
CC(NC(=O)c1cc(C(=O)NC(Cc2ccccc2)C(O)CNCc2cccc(N(C)C)c2)cc(N(C)S(C)(=O)=O)c1)c1ccccc1 (stereo not shown) [N1-(4-(3-(dimethylamino)benzylamino)-3-hydroxy-1-phenylbutan-2-yl)-5-(N-methylmethylsulfonamido)-N3-(1-phenylethyl)isophthalamide] | < 0.3 | > 0.501 | – | < 1
CC(NC(=O)c1cc(C(=O)NC(Cc2ccccc2)C(O)CNCc2nc3ccccc3[nH]2)cc(N(C)S(C)(=O)=O)c1)c1ccccc1 (stereo not shown) [N1-(4-((1H-benzo[d]imidazol-2-yl)methylamino)-3-hydroxy-1-phenylbutan-2-yl)-5-(N-methylmethylsulfonamido)-N3-(1-phenylethyl)isophthalamide] | < 0.3 | < 0.3 | – | 1 to 5
CC(NC(=O)c1cc(C(=O)NC(Cc2ccccc2)C(O)CNCc2cncc(N(C)C)c2)cc(N(C)S(C)(=O)=O)c1)c1ccccc1 (stereo not shown) [N1-(4-((5-(dimethylamino)pyridin-3-yl)methylamino)-3-hydroxy-1-phenylbutan-2-yl)-5-(N-methylmethylsulfonamido)-N3-(1-phenylethyl)isophthalamide] | < 0.3 | 0.301 to 0.5 | – | < 1
CC(NC(=O)c1cc(C(=O)NC(Cc2ccccc2)C(O)CNCc2cncc(F)c2)cc(N(C)S(C)(=O)=O)c1)c1ccccc1 (stereo not shown) [N1-(4-((5-fluoropyridin-3-yl)methylamino)-3-hydroxy-1-phenylbutan-2-yl)-5-(N-methylmethylsulfonamido)-N3-(1-phenylethyl)isophthalamide] | < 0.3 | < 0.3 | – | < 1
CC(NC(=O)c1cc(C(=O)NC(Cc2ccccc2)C(O)CNCC2CCN(C(=O)OCc3ccccc3)CC2)cc(N(C)S(C)(=O)=O)c1)c1ccccc1 (stereo not shown) [benzyl 4-((2-hydroxy-3-(3-(N-methylmethylsulfonamido)-5-(1-phenylethylcarbamoyl)benzamido)-4-phenylbutylamino)methyl)piperidine-1-carboxylate] | < 0.3 | < 0.3 | – | 1 to 5

Next, values leading:

Ki (memapsin 2) [µM] | Ki (cathepsin D) [µM] | Ki (memapsin 1) [µM] | IC50 [1] [µM] | Compound
> 0.501 | – | > 0.501 | > 5 | CC(C)NC(=O)c1cccc(CNCC(O)C(Cc2ccccc2)NC(=O)c2cc(C(=O)NC(C)c3ccccc3)cc(N(C)S(C)(=O)=O)c2)c1 (stereo not shown) [N1-(3-hydroxy-4-(3-(isopropylcarbamoyl)benzylamino)-1-phenylbutan-2-yl)-5-(N-methylmethylsulfonamido)-N3-(1-phenylethyl)isophthalamide]
< 0.3 | < 0.3 | – | < 1 | CC(NC(=O)c1cc(C(=O)NC(Cc2ccccc2)C(O)CNCc2cccc(CF)c2)cc(N(C)S(C)(=O)=O)c1)c1ccccc1 (stereo not shown) [N1-(4-(3-(fluoromethyl)benzylamino)-3-hydroxy-1-phenylbutan-2-yl)-5-(N-methylmethylsulfonamido)-N3-(1-phenylethyl)isophthalamide]
< 0.3 | < 0.3 | – | < 1 | Cc1csc(CN(C)C(=O)c2cccc(C(=O)NC(Cc3ccccc3)C(O)CNCc3cccc(CF)c3)c2)n1 (stereo not shown) [N1-(4-(3-(fluoromethyl)benzylamino)-3-hydroxy-1-phenylbutan-2-yl)-N3-methyl-N3-((4-methylthiazol-2-yl)methyl)isophthalamide]
< 0.3 | < 0.3 | – | < 1 | CCc1cccc(CNCC(O)C(Cc2ccccc2)NC(=O)c2cc(C(=O)NC(C)c3ccccc3)cc(N(C)S(C)(=O)=O)c2)c1 (stereo not shown) [N1-(4-(3-ethylbenzylamino)-3-hydroxy-1-phenylbutan-2-yl)-5-(N-methylmethylsulfonamido)-N3-(1-phenylethyl)isophthalamide]
< 0.3 | < 0.3 | – | < 1 | CCc1cccc(CNCC(O)C(Cc2ccccc2)NC(=O)c2cccc(C(=O)N(C)Cc3nc(C)cs3)c2)c1 (stereo not shown) [N1-(4-(3-ethylbenzylamino)-3-hydroxy-1-phenylbutan-2-yl)-N3-methyl-N3-((4-methylthiazol-2-yl)methyl)isophthalamide]
< 0.3 | < 0.3 | – | < 1 | CCc1cncc(CNCC(O)C(Cc2ccccc2)NC(=O)c2cc(C(=O)NC(C)c3ccccc3)cc(N(C)S(C)(=O)=O)c2)c1 (stereo not shown) [N1-(4-((5-ethylpyridin-3-yl)methylamino)-3-hydroxy-1-phenylbutan-2-yl)-5-(N-methylmethylsulfonamido)-N3-(1-phenylethyl)isophthalamide]
< 0.3 | < 0.3 | – | < 1 | CCc1cncc(CNCC(O)C(Cc2ccccc2)NC(=O)c2cccc(C(=O)N(C)Cc3nc(C)cs3)c2)c1 (stereo not shown) [N1-(4-((5-ethylpyridin-3-yl)methylamino)-3-hydroxy-1-phenylbutan-2-yl)-N3-methyl-N3-((4-methylthiazol-2-yl)methyl)isophthalamide]
